Where two headings read alike, the source gives them in different places.
Legend:
[1] = system: foot tapping in gerbils induced by NK-1 receptor agonist GR73632; experiment: Gerbil foot-tapping (Assay 2), induced by central infusion of NK-1 receptor agonist GR73632; format: in vivo, Mongolian gerbil; conditions: Meriones unguiculatus, iv
Description: CNS-penetrant NK-1 receptor antagonists for use in the present invention can be identified by their ability to inhibit foot tapping in gerbils induced by anxiogenic agents (such as pentagastrin) or central infusion of NK-1 receptor agonists such as GR73632, or caused by aversive stimulation such as foot shock or single housing, based on the method of Rupniak & Williams, Eur. J. Pharmacol., 1994, 265, 179.
Male or female Mongolian gerbils (35-70 g) are anaesthetised by inhalation of an isoflurane/oxygen mixture to permit exposure of the jugular vein in order to permit administration of test compounds or vehicle in an injection volume of 5ml/kg i.v. Alternatively, test compounds may be administered orally or by subcutaneous or intraperitoneal routes. A skin incision is then made in the midline of the scalp to expose the skull. […]

[2] = system: cisplatin-induced emesis in ferrets; experiment: Ferret emesis (Assay 3), cisplatin-induced; format: in vivo; conditions: Mustela putorius, po, 4 h; p.o., cisplatin 10 mg/kg i.v. at 60 minutes following dosing; read-out: ferret emesis: ID90
Experimental: Ten minutes later they are fed with approximately 100 g of tinned cat food. At 60 minutes following oral dosing, cisplatin (10 mg/kg) is given i.v. via a jugular vein catheter inserted under a brief period of halothane anaesthesia. The catheter is then removed, the jugular vein ligated and the skin incision closed. The ferrets recover rapidly from the anaesthetic and are mobile within 10-20 minutes. The animals are observed continuously during recovery from the anaesthetic and for 4 hours following the cisplatin injection, after which time the animals are killed humanely. The numbers of retches and vomits occurring during the 4 hours after cisplatin administration are recorded by trained observers.

[3] = system: separation-induced vocalisations by guinea-pig pups; experiment: Separation-induced vocalisation in guinea-pig pups (Assay 4); format: in vivo; conditions: Cavia porcellus, po, 4 hr. pretreatment; read-out: guinea-pig vocalisation (4 hr. pretreatment): ID50
Experimental: Male and female guinea-pigs pups are housed in family groups with their mothers and littermates throughout the study. Experiments are commenced after weaning when the pups are 2 weeks old. Before entering an experiment, the pups are screened to ensure that a vigorous vocalisation response is reproducibly elicited following maternal separation. The pups are placed individually in an observation cage (55 cm×39 cm×19 cm) in a room physically isolated from the home cage for 15 minutes and the duration of vocalisation during this baseline period is recorded. […] On test days each pup receives an oral dose or an s.c. or i.p. injection of test compound or vehicle and is then immediately returned to the home cage with its mother and siblings for 30 to 60 minutes (or for up to 4 hours following an oral dose, dependent upon the oral pharmacokinetics of the test compound) before social isolation for 15 minutes as described above. […] Between 6 and 8 animals receive each test compound at each dose tested.

OC[C@@H](O[C@H]1OCCN(Cc2nc[nH]n2)[C@H]1c1ccc(F)cc1)c1cc(C(F)(F)F)cc(C(F)(F)F)c1 [2-(R)-(1-(S)-(3,5-bis(trifluoromethyl)phenyl)-2-hydroxyethoxy)-3-(S) -(4-fluorophenyl)-4-(1,2,4-triazol-3-yl)methylmorpholine]
ED50 ([1]; 5 min, i.v., immediately prior to GR73632 challenge (5 mins.), read-out: gerbil foot-tapping (5 mins.): ID50): 0.38 mg/kg
ED50 ([1]; 24 hours prior to central NK1 agonist challenge, read-out: gerbil foot-tapping (24 hrs.): ID50): 2.2 mg/kg
ED90 [2]: 1 mg/kg
ED50 [3]: 0.91 mg/kg
